Measured values: patent US7598258B2, “Quinoline derivatives and quinazoline derivatives inhibiting autophosphorylation of macrophage colony stimulating factor receptor” (Kirin Beer Kabushiki Kaisha, priority 2002, dated 2009)

Target: T1, Human KDR (Homo sapiens, UniProt P35968)
T1 construct: expressed in transfected cells; host or cells: NIH3T3 cells (mouse fibroblasts)
Test: Inhibition of KDR phosphorylation in human KDR-transfected NIH3T3 cells (ELISA)
Format: cell-based
Conditions: for Selection ratio (KDR phosphorylation IC50 / c-fms phosphorylation IC50): class 0-3; for IC50: human KDR-transfected NIH3T3 cells, VEGF 100 ng/ml, ELISA, read-out: KDR phosphorylation 50% inhibitory concentration (IC50)
Procedure: Human KDR-transfected NIH3T3 cells (Sawano A et al., Cell Growth & Differentiation, 7, 213-221 (1996)) were cultured in a DMEM medium containing 10% fetal calf serum (purchased from GIBCO BRL) within a 5% carbon dioxide incubator until 50 to 70% confluent. The harvested cells were seeded into wells, containing the same medium, in a collagen type 1 coat 96-well flat-bottom plate in an amount of 1.5×10^4 per well, and cultured at 37° C. overnight. The medium was replaced with a 0.1% fetal calf serum-containing DMEM medium. The test compound dissolved in dimethyl sulfoxide was added to each well, and the cultivation was continued at 37° C. for additional one hr. A human recombinant vascular endothelial growth factor (hereinafter abbreviated to “VEGF”) was added to a final concentration of 100 ng/ml, followed by stimulation of cells at 37° C. for 2 min. The medium was removed, and the cells were washed with phosphate buffered saline (pH 7.4). A solubilization buffer (50 μl) (20 mM HEPES (pH 7.4), 150 mM NaCl, 0.2% Triton X-100, 10% glycerol, 5 mM sodium orthovanadylate, 5 mM disodium ethylenediaminetetraacetate, and 2 mM Na4P2O7) was then added thereto. The mixture was shaken at 4° C. for 2 hr to prepare a cell extract.
Separately, phosphate buffered saline (50 μl, pH 7.4) containing 5 μg/ml of anti-phospho-tyrosine antibody (PY20; purchased from Transduction Laboratories) was added to a microplate for ELISA (Maxisorp; purchased from NUNC), followed by standing at 4° C. overnight to be immobilized on the wells. After washing of the plate, 300 μl of a blocking solution was added, followed by standing at room temperature for 2 hr to perform blocking. After washing, the whole cell extract was transferred and was allowed to stand at 4° C. overnight. After washing, an anti-KDR antibody (purchased from Santa Cruz Biotechnology) was allowed to react at room temperature for one hr. Further, after washing, a peroxidase-labeled anti-rabbit Ig antibody (purchased from Amersham) was allowed to react at room temperature for one hr. After washing, a chromophoric substrate for peroxidase (purchased from Sumitomo Bakelite Co., Ltd.) was added thereto to initiate a reaction. After a suitable level of color development, a reaction termination solution was added to stop the reaction, and the absorbance at 450 nm was measured with a microplate reader. The KDR phosphorylation activity for each well was determined by presuming the absorbance without the addition of the test compound and with the addition of VEGF to be 100% KDR phosphorylation activity and the absorbance without the addition of the test compound and VEGF to be 0% KDR phosphorylation activity. The concentration of the test compound was varied on several levels, the KDR phosphorylation inhibitory rate was determined for each case, and the concentration of the test compound necessary for inhibiting 50% of KDR phosphorylation (IC50) was calculated.

T1 sequence (P35968 20-1356): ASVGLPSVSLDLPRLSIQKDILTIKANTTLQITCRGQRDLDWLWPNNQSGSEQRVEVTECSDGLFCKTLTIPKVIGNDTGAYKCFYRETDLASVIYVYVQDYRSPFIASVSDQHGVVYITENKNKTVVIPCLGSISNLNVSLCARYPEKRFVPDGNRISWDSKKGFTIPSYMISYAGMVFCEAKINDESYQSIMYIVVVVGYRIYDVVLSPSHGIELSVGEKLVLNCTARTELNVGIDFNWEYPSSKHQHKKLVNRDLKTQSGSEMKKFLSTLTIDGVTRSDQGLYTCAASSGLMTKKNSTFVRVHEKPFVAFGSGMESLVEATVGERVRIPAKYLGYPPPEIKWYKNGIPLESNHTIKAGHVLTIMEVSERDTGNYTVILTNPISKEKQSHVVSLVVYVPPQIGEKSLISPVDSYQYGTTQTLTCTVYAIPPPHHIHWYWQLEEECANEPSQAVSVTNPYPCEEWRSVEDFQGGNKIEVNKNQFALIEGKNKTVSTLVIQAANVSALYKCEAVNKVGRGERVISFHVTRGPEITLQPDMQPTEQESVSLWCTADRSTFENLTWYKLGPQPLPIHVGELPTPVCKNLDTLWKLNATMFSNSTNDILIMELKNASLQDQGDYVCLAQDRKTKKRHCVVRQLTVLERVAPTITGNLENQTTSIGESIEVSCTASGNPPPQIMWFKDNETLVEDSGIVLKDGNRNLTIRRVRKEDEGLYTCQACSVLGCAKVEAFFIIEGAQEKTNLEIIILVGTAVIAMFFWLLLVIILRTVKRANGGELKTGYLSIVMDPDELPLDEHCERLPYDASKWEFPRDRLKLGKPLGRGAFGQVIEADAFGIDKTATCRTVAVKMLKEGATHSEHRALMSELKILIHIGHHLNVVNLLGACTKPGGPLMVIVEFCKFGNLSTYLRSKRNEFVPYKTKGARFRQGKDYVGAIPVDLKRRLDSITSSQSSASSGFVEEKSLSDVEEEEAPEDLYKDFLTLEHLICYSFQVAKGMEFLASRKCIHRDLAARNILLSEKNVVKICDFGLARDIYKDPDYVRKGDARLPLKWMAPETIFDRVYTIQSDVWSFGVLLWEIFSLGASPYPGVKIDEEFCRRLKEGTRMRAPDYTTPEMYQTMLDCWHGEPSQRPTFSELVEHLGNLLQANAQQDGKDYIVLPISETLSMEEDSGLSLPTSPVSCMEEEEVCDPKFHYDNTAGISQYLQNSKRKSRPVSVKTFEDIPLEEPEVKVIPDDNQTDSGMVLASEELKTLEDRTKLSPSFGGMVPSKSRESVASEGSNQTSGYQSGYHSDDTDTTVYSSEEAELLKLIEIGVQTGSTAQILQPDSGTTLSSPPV

SMILES	Selection ratio (KDR phosphorylation IC50 / c-fms phosphorylation IC50)	IC50 [nM]
COc1cc2nccc(Oc3ccc(NC(=O)NC(C)c4ccc(F)cc4)c(C)c3C)c2cc1OC (stereo not drawn) [Example 25, N-{4-[(6,7-Dimethoxy-4-quinolyl)oxy]-2,3-dimethylphenyl}-N′-[1-(4-fluorophenyl)ethyl]urea]	0 (KDR phosphorylation 50% inhibitory concentration [μM]/c-fms phosphorylation 50% inhibitory concentration [μM] was less than 5)	3.5
COc1cc2nccc(Oc3ccc(NC(=O)N[C@@H](C)c4ccc(F)cc4)c(C)c3C)c2cc1OC [Example 26, N-{4-[(6,7-Dimethoxy-4-quinolyl)oxy]-2,3-dimethylphenyl}-N′-[(1S)-1-(4-fluorophenyl)ethyl]urea]	1 (when the value was 5 or more)	155
COc1cc2nccc(Oc3ccc(NC(=O)N[C@H](C)c4ccc(F)cc4)c(C)c3C)c2cc1OC [Example 27, N-{4-[(6,7-Dimethoxy-4-quinolyl)oxy]-2,3-dimethylphenyl}-N′-[(1R)-1-(4-fluorophenyl)ethyl]urea]	0 (KDR phosphorylation 50% inhibitory concentration [μM]/c-fms phosphorylation 50% inhibitory concentration [μM] was less than 5)	2
COc1cc2nccc(Oc3ccc(NC(=O)NC(C)c4ccc(F)cc4)c(F)c3)c2cc1OC (stereo not drawn) [Example 28, N-{4-[(6,7-Dimethoxy-4-quinolyl)oxy]-2-fluorophenyl}-N′-[1-(4-fluorophenyl)ethyl]urea]	0 (KDR phosphorylation 50% inhibitory concentration [μM]/c-fms phosphorylation 50% inhibitory concentration [μM] was less than 5)	< 1
COc1cc2nccc(Oc3ccc(NC(=O)N[C@@H](C)c4ccc(F)cc4)c(F)c3)c2cc1OC [Example 29, N-{4-[(6,7-Dimethoxy-4-quinolyl)oxy]-2-fluorophenyl}-N′-[(1S)-1-(4-fluorophenyl)ethyl]urea]	2 (when the value was 10 or more)	27.3
COc1cc2nccc(Oc3ccc(NC(=O)N[C@H](C)c4ccc(F)cc4)c(F)c3)c2cc1OC [Example 30, N-{4-[(6,7-Dimethoxy-4-quinolyl)oxy]-2-fluorophenyl}-N′-[(1R)-1-(4-fluorophenyl)ethyl]urea]	0 (KDR phosphorylation 50% inhibitory concentration [μM]/c-fms phosphorylation 50% inhibitory concentration [μM] was less than 5)	< 1
COc1cc2nccc(Oc3ccc(NC(=O)NC(C)c4ccc(F)cc4)cc3F)c2cc1OC (stereo not drawn) [Example 31, N-{4-[(6,7-Dimethoxy-4-quinolyl)oxy]-3-fluorophenyl}-N′-[1-(4-fluorophenyl)ethyl]urea]	0 (KDR phosphorylation 50% inhibitory concentration [μM]/c-fms phosphorylation 50% inhibitory concentration [μM] was less than 5)	1
COc1cc2nccc(Oc3ccc(NC(=O)N[C@@H](C)c4ccc(F)cc4)cc3F)c2cc1OC [Example 32, N-{4-[(6,7-Dimethoxy-4-quinolyl)oxy]-3-fluorophenyl}-N′-[(1S)-1-(4-fluorophenyl)ethyl]urea]	1 (when the value was 5 or more)	29.4
COc1cc2nccc(Oc3ccc(NC(=O)N[C@H](C)c4ccc(F)cc4)cc3F)c2cc1OC [Example 33, N-{4-[(6,7-Dimethoxy-4-quinolyl)oxy]-3-fluorophenyl}-N′-[(1R)-1-(4-fluorophenyl)ethyl]urea]	0 (KDR phosphorylation 50% inhibitory concentration [μM]/c-fms phosphorylation 50% inhibitory concentration [μM] was less than 5)	< 1
COc1cc2nccc(Oc3ccc(NC(=O)N[C@@H](C)c4ccc(Br)cc4)cc3)c2cc1OC [Example 34, N-[(1S)-1-(4-Bromophenyl)ethyl]-N′-{4-[(6,7-dimethoxy-4-quinolyl)oxy]phenyl}urea]	2 (when the value was 10 or more)	296
COc1cc2nccc(Oc3ccc(NC(=O)N[C@@H](C)c4ccccc4OC)cc3)c2cc1OC [Example 51, N-{4-[(6,7-Dimethoxy-4-quinolyl)oxy]phenyl}-N′-[(1S)-1-(2-methoxyphenyl)ethyl]urea]	1 (when the value was 5 or more)	38.2
COc1cc2nccc(Oc3ccc(NC(=O)N[C@H](C)c4ccccc4OC)cc3)c2cc1OC [Example 52, N-{4-[(6,7-Dimethoxy-4-quinolyl)oxy]phenyl}-N′-[(1R)-1-(2-methoxyphenyl)ethyl]urea]	0 (KDR phosphorylation 50% inhibitory concentration [μM]/c-fms phosphorylation 50% inhibitory concentration [μM] was less than 5)	7.2
COc1ccc([C@H](C)NC(=O)Nc2ccc(Oc3ccnc4cc(OC)c(OC)cc34)cc2)cc1 [Example 53, N-{4-[(6,7-Dimethoxy-4-quinolyl)oxy]phenyl}-N′-[(1S)-1-(4-methoxyphenyl)ethyl]urea]	2 (when the value was 10 or more)	37.4
COc1ccc([C@@H](C)NC(=O)Nc2ccc(Oc3ccnc4cc(OC)c(OC)cc34)cc2)cc1 [Example 54, N-{4-[(6,7-Dimethoxy-4-quinolyl)oxy]phenyl}-N′-[(1R)-1-(4-methoxyphenyl)ethyl]urea]	1 (when the value was 5 or more)	574
COc1cc2nccc(Oc3ccc(NC(=O)N[C@H](C)c4cccc(Br)c4)c(Cl)c3)c2cc1OC [Example 55, N-[(1R)-1-(3-Bromophenyl)ethyl]-N′-{2-chloro-4-[(6,7-dimethoxy-4-quinolyl)oxy]phenyl}urea]	0 (KDR phosphorylation 50% inhibitory concentration [μM]/c-fms phosphorylation 50% inhibitory concentration [μM] was less than 5)	1.6
COc1cc2nccc(Oc3cc(C)c(NC(=O)N[C@H](C)c4cccc(Br)c4)cc3C)c2cc1OC [Example 56, N-[(1R)-1-(3-Bromophenyl)ethyl]-N′-{4-[(6,7-dimethoxy-4-quinolyl)oxy]-2,5-dimethylphenyl}urea]	0 (KDR phosphorylation 50% inhibitory concentration [μM]/c-fms phosphorylation 50% inhibitory concentration [μM] was less than 5)	9.6
COc1cc2nccc(Oc3ccc(NC(=O)N[C@H](C)c4cccc(Br)c4)cc3Cl)c2cc1OC [Example 57, N-[(1R)-1-(3-Bromophenyl)ethyl]-N′-{3-chloro-4-[(6,7-dimethoxy-4-quinolyl)oxy]phenyl}urea]	0 (KDR phosphorylation 50% inhibitory concentration [μM]/c-fms phosphorylation 50% inhibitory concentration [μM] was less than 5)	3.6
COc1cc2nccc(Oc3ccc(NC(=O)N[C@H](C)c4cccc(Br)c4)c(C)c3)c2cc1OC [Example 58, N-[(1R)-1-(3-Bromophenyl)ethyl]-N′-{4-[(6,7-dimethoxy-4-quinolyl)oxy]-2-methylphenyl}urea]	0 (KDR phosphorylation 50% inhibitory concentration [μM]/c-fms phosphorylation 50% inhibitory concentration [μM] was less than 5)	2.1
